Data published in US20260256923A1, “NEW RECRUITMENT ELEMENT OF UBIQUITIN LIGASE AND USE THEREOF” (SHENZHEN LINGGENE BIOTECH CO., LTD., priority 2023, published 2026).

Experiments:
[1] = system: metastatic castration-resistant prostate cancer; conditions: patients carrying AR T878X and/or H875Y mutations; cited from earlier work
[2] = system: MCF 10A human normal mammary epithelial cells; assay: Toxicity to normal cells, cell apoptosis proportion by flow cytometer; type: cell-based; conditions: 0-5000 nM, 4 days, medium renewed every day
Protocol: The toxicity of AS1411 to normal cells was compared with that of the small molecule ligand nutlin-3a of MDM2 to normal cells. AS1411 or nutlin-3a at different concentrations (0 nM, 500 nM, 1000 nM, and 5000 nM) was incubated with MCF 10A human normal mammary epithelial cells for 4 days, and the medium containing the respective concentrations of AS1411 or nutlin-3a was renewed every day. The cell apoptosis proportion was detected using a flow cytometer.

STAT3 [3] = target: T1, STAT3 (Homo sapiens, UniProt P40763); assay: STAT3 protein degradation in HeLa cells, western blot; type: cell-based; design: endogenous in cells; host or cells: HeLa; conditions: 500 nM, 6 h
T1 sequence (P40763 whole entry): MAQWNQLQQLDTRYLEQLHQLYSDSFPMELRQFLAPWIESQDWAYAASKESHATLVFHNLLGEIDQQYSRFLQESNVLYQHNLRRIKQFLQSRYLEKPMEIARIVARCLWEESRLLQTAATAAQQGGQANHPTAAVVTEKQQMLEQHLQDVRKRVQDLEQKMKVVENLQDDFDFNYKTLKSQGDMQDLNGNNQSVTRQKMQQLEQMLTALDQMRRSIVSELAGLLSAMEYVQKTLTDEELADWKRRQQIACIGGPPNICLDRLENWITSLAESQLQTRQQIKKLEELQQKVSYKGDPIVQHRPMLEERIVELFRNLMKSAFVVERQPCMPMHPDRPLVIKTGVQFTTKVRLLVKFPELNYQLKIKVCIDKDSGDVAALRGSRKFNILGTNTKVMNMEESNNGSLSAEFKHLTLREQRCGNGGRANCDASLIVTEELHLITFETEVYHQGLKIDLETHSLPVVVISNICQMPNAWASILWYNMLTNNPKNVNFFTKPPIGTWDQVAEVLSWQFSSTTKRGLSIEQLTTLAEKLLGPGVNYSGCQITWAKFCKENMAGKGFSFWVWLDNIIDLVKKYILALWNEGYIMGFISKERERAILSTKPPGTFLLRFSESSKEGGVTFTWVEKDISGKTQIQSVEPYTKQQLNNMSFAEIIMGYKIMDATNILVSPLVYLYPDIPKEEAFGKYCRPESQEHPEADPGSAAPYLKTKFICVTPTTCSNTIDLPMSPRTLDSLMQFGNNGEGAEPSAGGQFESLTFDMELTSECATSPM
Protocol: HeLa cells were incubated with 500 nM said first PROTAC product 1411-S3-1 or second PROTAC product 1411-S3-2, and corresponding cell samples were collected at time gradients of 0 h, 2 h, 6 h, 12 h, 18 h, and 24 h for protein extraction and subsequent western blot assay.
HeLa cells were incubated with the first PROTAC product 1411-S3-1 or the second PROTAC product 1411-S3-2 at concentrations of 0 nM, 100 nM, 200 nM, 500 nM, and 1000 nM. After 6 h, cell samples were collected for protein extraction and subsequent western blot assay. […] The half-maximal degradation concentrations (DC50) of the first PROTAC product 1411-S3-1 and the second PROTAC product 1411-S3-2 against STAT3 at the protein level were 262.5 nM and 136.3 nM, respectively, as shown in FIG. 19.
(§1) HeLa cells were incubated with 500 nM double-stranded transcription factor decoy oligonucleotide S3, AS1411, the first PROTAC product 1411-S3-1, the second PROTAC product 1411-S3-2, or AS1411+double-stranded transcription factor decoy oligonucleotide S3. After 6 h, cell samples were collected for protein extraction and subsequent western blot assay.
HeLa cells were incubated with 500 nM said first PROTAC product 1411-S3-1 or second PROTAC product 1411-S3-2, and proteasome inhibitor MG132 was added. After 6 h, cell samples were collected for protein extraction and subsequent western blot assay. […]

STAT3 [4] = target: T1, STAT3; assay: STAT3 protein degradation in HOS osteosarcoma cells, western blot; type: cell-based; design: endogenous in cells; conditions: 500 nM, 6 h
Protocol: as §1, with “HOS osteosarcoma” for “HeLa”

NCL [5] = target: T2, NCL (Homo sapiens, UniProt P19338); assay: Biotin-oligonucleotide pull-down with recombinant proteins (NCL); type: binding; design: purchased ACROBiosystems (NCL); R&D Systems (MDM2) NUL-H5253 (NCL); E3-202-050 (MDM2); conditions: 400 nM 5′-biotin label, 6 μg/mL NCL + 6 μg/mL MDM2
T2 sequence (P19338 whole entry): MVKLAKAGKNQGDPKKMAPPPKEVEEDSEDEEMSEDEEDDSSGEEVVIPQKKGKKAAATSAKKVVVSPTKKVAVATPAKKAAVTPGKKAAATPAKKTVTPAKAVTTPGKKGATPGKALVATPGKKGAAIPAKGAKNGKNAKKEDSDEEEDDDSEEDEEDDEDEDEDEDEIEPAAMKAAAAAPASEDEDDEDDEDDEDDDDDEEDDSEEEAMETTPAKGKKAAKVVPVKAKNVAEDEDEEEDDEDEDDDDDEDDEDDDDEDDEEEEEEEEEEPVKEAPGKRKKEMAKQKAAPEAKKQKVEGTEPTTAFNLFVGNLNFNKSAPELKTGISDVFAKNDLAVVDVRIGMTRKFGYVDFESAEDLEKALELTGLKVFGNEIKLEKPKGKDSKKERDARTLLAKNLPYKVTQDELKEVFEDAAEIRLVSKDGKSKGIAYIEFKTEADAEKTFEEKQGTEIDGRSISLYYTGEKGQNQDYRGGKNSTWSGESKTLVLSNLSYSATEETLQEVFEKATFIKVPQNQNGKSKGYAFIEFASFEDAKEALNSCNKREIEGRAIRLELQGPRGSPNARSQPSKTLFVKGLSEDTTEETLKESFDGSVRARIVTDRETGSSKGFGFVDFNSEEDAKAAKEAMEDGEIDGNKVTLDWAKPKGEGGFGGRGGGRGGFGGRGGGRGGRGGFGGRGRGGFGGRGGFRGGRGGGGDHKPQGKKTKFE
Protocol: (§2) 6 μg/mL recombinant human NCL and 6 μg/mL recombinant human MDM2 were mixed well and incubated at 4° C. for 7 h. Subsequently, 400 nM CRO, AS1411, or iSN04 labeled by biotin at the 5′ end was added, and the mixture was incubated at 4° C. for 6 h. Streptavidin agarose gel beads (purchased from cytiva, Cat. No.: 17511301) were added, and the mixture was further incubated at 4° C. overnight. The gel beads were washed 4 times with a TBST buffer, and an SDS-PAGE protein loading buffer (purchased from Beyotime, Cat. No.: P0015) was added. The mixture was heated to 100° C. and held for 10 min. After centrifugation, the supernatant was collected. The pull-down product was then detected by western blot assay.

[6] = target: T3, interaction between NCL and MDM2 (Homo sapiens, UniProt P19338); assay: Co-immunoprecipitation of NCL and MDM2 from HeLa cell lysate, western blot; type: binding; conditions: 0-20 μM, 4° C. 6 h, IP with antibody against NCL
T3 construct: HeLa cervical cancer cells were lysed with an IP lysis solution; endogenous in cells; host or cells: HeLa cell lysate
T3 sequence (P19338 2-710 limits assumed): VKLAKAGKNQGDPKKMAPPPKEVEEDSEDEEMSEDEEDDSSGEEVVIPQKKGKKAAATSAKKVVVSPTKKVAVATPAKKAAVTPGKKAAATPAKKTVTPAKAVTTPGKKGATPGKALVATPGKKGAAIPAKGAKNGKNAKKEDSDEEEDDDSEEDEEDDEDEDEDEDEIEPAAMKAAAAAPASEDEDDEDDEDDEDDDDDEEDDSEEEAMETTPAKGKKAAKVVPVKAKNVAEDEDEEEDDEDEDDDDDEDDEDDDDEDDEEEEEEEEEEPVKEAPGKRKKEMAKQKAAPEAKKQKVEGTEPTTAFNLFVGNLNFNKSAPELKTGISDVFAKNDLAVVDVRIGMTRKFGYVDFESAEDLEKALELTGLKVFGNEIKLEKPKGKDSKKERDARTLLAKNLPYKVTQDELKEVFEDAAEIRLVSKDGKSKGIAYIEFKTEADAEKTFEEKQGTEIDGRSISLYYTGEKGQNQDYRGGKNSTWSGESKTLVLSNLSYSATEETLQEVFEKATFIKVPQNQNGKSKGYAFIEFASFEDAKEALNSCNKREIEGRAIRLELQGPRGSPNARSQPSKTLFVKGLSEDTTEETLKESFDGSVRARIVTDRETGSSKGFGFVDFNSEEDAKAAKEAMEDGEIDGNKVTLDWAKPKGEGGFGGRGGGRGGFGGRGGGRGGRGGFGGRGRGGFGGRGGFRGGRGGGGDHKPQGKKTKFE
Protocol: Co-immunoprecipitation (Co-IP) is a classical method for the study of protein interactions based on the specific interaction between an antibody and an antigen. It is an effective method to determine the physiological interaction between two proteins in intact cells.
HeLa cervical cancer cells were lysed with an IP lysis solution (purchased from Thermo Scientific, Cat. No.: 87788) and then incubated with AS 1411 or iSN04 at different concentrations (0 μM, 1 μM, 5 μM, 10 μM, and 20 μM) at 4° C. for 6 h. Subsequently, […] of an antibody against NCL was added, and the mixture was further incubated at 4° C. overnight. Protein A/G magnetic beads (purchased from Thermo Scientific, Cat. No.: 88802) were added, and the mixture was incubated with rotation at room temperature for 1.5 h. The bound NCL and its interacting proteins on the magnetic beads were washed with an IP lysis buffer (purchased from Thermo Scientific, Cat. No.: 87788), and an SDS-PAGE protein loading buffer (purchased from Beyotime, Cat. No.: P0015) was added. The mixture was heated to 100° C. and held for 10 min. The magnetic beads were adsorbed on a magnetic rack, and the supernatant was transferred into a new tube. Subsequently, western blot assay was performed to detect whether NCL bound to MDM2 and whether the binding was affected by AS 1411 or iSN04. […]

MDM2 [7] = target: T4, MDM2 (Homo sapiens, UniProt Q00987); assay: Biotin-oligonucleotide pull-down with recombinant proteins (MDM2); type: binding; design: purchased R&D Systems (MDM2); ACROBiosystems (NCL) E3-202-050 (MDM2); NUL-H5253 (NCL); conditions: 400 nM 5′-biotin label, 6 μg/mL NCL + 6 μg/mL MDM2
Protocol: as §2
Target sequence in this assay (P19338 whole entry partner): as the sequence (P19338 whole entry) above
Target sequence in this assay (Q00987 whole entry): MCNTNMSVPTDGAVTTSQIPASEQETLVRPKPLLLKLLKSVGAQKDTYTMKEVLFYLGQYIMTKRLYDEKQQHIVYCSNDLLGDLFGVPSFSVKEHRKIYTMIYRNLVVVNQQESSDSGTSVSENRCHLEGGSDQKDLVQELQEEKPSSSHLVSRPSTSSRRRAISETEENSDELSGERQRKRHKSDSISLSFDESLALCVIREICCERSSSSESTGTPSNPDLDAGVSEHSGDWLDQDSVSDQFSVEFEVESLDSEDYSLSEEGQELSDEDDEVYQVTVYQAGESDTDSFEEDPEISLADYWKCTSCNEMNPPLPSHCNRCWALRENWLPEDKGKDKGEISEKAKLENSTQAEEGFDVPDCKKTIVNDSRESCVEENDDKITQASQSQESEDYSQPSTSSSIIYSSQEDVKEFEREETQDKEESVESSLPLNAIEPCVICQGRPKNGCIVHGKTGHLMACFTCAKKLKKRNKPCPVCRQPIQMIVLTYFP

NCL [8] = target: T2, NCL; assay: Biotin-oligonucleotide pull-down from HeLa cell lysate, western blot (NCL); type: binding; design: HeLa cervical cancer cells were lysed with an IP lysis solution; endogenous in cells; host or cells: HeLa cell lysate; conditions: 5′-biotin label, 0 nM-20 μM
Protocol: (§3) HeLa cervical cancer cells were lysed with an IP lysis solution (purchased from Thermo Scientific, Cat. No.: 87788) and then incubated with a CRO (cytosine-rich oligonucleotide, negative control, SEQ ID NO: 13), AS1411, or iSN04 labeled by biotin at the 5′ end at different concentrations (0 nM, 200 nM, 500 nM, 1 μM, 5 μM, 10 μM, and 20 μM) at 4° C. for 6h. Subsequently, streptavidin agarose gel beads (purchased from cytiva, Cat. No.: 17511301) were added, and the mixture was further incubated at 4° C. overnight. After the bound biotin-labeled CRO, AS411, or iSN04 and its captured proteins on the gel beads were washed multiple times with an IP lysis buffer (purchased from Thermo Scientific, Cat. No.: 87788), an SDS-PAGE protein loading buffer (purchased from Beyotime, Cat. No.: P0015) was added, and the mixture was heated to 100° C. and held for 10 min. After centrifugation, the supernatant was collected as a pull-down product. The pull-down product was detected by western blot assay.

MDM2 [9] = target: T4, MDM2; assay: Biotin-oligonucleotide pull-down from HeLa cell lysate, western blot (MDM2); type: binding; design: HeLa cervical cancer cells were lysed with an IP lysis solution; endogenous in cells; host or cells: HeLa; conditions: 5′-biotin label, 0 nM-20 μM
Protocol: as §3
Target sequence in this assay (P19338 2-710 partner limits assumed): as the sequence (P19338 2-710 limits assumed) above
Target sequence in this assay (Q00987 whole entry): as the sequence (Q00987 whole entry) above

[10] = G4 structural characteristics, N-methyl mesoporphyrin IX (NMM) fluorescent probe; type: physicochemical; conditions: 1 μM NMM
Protocol: Both AS1411 and iSN04 are oligonucleotides specifically binding to NCL. The sequence of AS1411 is SEQ ID NO: 1, and the sequence of iSN04 is SEQ ID NO: 14. AS1411 contains a plurality of GGT motifs, and iSN04 contains one GGT motif. Whether AS1411 and iSN04 have stable G4 structural characteristics was determined. The experimental process was as follows: 5 μM NC (negative control, SEQ ID NO: 15), AS1411, or iSN04 was added to water, and the total volume was 100 μL. The mixture was heated at 95° C. for 7 min and then immediately incubated on ice for 3 min, followed by the addition of 2 μL of N-methyl mesoporphyrin IX (NMM) (purchased from MCE, Cat. No.: HY-133821) to make a final concentration of 1 μM. The resulting mixture was incubated at room temperature for 1 h in the dark. The fluorescence intensity was detected by a microplate reader, with an emission wavelength of 550-700 nm and an excitation wavelength of […].
Guanine-rich DNA sequences can form more distinct G4 structural characteristics in the presence of metal ions (usually sodium and potassium ions). 5 μM NC (negative control, SEQ ID NO: 15), AS1411, or iSN04 was added to a 100 mM K^+ solution, and the total volume was 100 μL. The mixture was well mixed, heated at 95° C. for 7 min, and then immediately incubated on ice for 3 min, followed by the addition of 2 μL of N-methyl mesoporphyrin IX (NMM) (purchased from MCE, Cat. No.: HY-133821) to make a final concentration of 1 μM. The resulting mixture was incubated at room temperature for 1 h in the dark. The fluorescence intensity was detected by a microplate reader, with an emission wavelength of 550-700 nm and an excitation wavelength of […].

For `N#Cc1ccc(O[C@H]2CC[C@H](NC(=O)c3ccc(N4CCC(CN5CCN(c6cc7c(cc6F)C(=O)N(C6CCC(=O)NC6=O)C7=O)CC5)CC4)nn3)CC2)cc1Cl` (some centres unmarked) [ARV-110, Bavdegalutamide], the “antitumor activity and clinical benefit” value [1] is given as “exhibits potent antitumor activity and clinical benefit”.
For `COc1ccc(C2=N[C@@H](c3ccc(Cl)cc3)[C@@H](c3ccc(Cl)cc3)N2C(=O)N2CCNC(=O)C2)c(OC(C)C)c1` [nutlin-3a], the “toxicity to normal cells (cell apoptosis proportion)” value [2] was “can cause cell apoptosis”.
For “S3: double-stranded transcription factor decoy oligonucleotide that specifically recognizes STAT3; strands SEQ ID NO: 5 and 6 (chain 1 CTTCTGGGAAA; chain 2 TTTCCCAGAAG; DNA, backbone and methylation of C not given here; double-stranded decoy)”, the “protein level of STAT3” value (STAT3 [3]) was “only the first PROTAC product 1411-S3-1 and the second PROTAC product 1411-S3-2 can reduce the protein level of transcription factor STAT3” and the “protein level of STAT3” value (STAT3 [4]) was “only the first PROTAC product 1411-S3-1 and the second PROTAC product 1411-S3-2 can reduce the protein level of transcription factor STAT3”.
With “iSN04: oligonucleotide specifically binding to NCL, SEQ ID NO: 14: 5′-AGATTAGGGTGAGGGTGA-3′ (DNA, backbone not given here)” the “binding to NCL” value (NCL [5]) was “can only bind to NCL”, the “effect on the interaction between NCL and MDM2” value [6] was “blocks the binding of NCL to MDM2” and the “binding / recruitment of MDM2” value (MDM2 [7]) was “cannot recruit MDM2 depending on its interaction with NCL”. For the same molecule, the “capture of NCL” value (NCL [8]) was “can capture NCL only at a high concentration”, the “capture of MDM2” value (MDM2 [9]) was “cannot capture MDM2” and the “G4 structural characteristics (fluorescence signal intensity)” value ([10]; 5 μM in 100 mM K+ solution) was 1000-2000. For the same molecule, the “G4 structural characteristics (fluorescence signal intensity)” value ([10]; 5 μM in water (no K+)) was “No G4 structural characteristics were detected”.
